Reference: publication PMC8426238, “Synthesis and preclinical evaluation of [^11C]MTP38 as a novel PET ligand for phosphodiesterase 7 in the brain” (European Journal of Nuclear Medicine and Molecular Imaging, 2021)

How the values were obtained:
PDE7 [1] = assay: In vitro autoradiography of rat brain sections with [^11C]MTP38; type: binding, Sprague-Dawley rats
Method: (§1) In vitro autoradiography was performed using 20-μm-thick fresh-frozen brain sections derived from Sprague-Dawley rats and rhesus monkeys. The sections were preincubated for 10 min in 50 mM Tris-HCl buffer (pH 7.4) at room temperature. These samples were then incubated for 60 min at room temperature in fresh buffer containing [^11C]MTP38 (2 nM) with or without unlabeled MTP38 (10 μM), MTP-X (4 μM), or MT-3014 (40 nM). The concentrations of MTP-X and MT-3014 were more than 400-fold of reported IC50 values of these agents. After the incubation, the brain sections were immersed twice in cold buffer for 3 min, dipped in cold distilled water for 10 s, and dried with warm airflow. Then the sections were contacted with imaging plates (BAS-MS2025, Fujifilm, Tokyo, Japan) for 60 min. The imaging plates were scanned with an imaging plate reader (BAS5000, Fujifilm, Tokyo, Japan), and the images were analyzed with the MultiGuage software (ver. 3.0, Fujifilm, Tokyo, Japan).

PDE7 [2] = assay: PET imaging in monkeys with [^11C]MTP38; type: in vivo, rhesus monkeys; conditions: for Striatal BPND: MRTMo, cerebellar reference
Method: Each monkey underwent multiple PET scans with intervals longer than 2 weeks. The monkeys were given an intramuscular injection of 0.04 mg/kg of atropine sulfate at 1.5 h before radioligand injection. They were subsequently anesthetized with an intramuscular injection of ketamine (5 mg/kg) and xylazine (0.5 mg/kg), intubated, and kept anesthetized with 1–2% isoflurane. Heart rate, electrocardiogram, body temperature, blood oxygen saturation level, and end-tidal CO2 were monitored during the PET scan. The monkeys were placed on a bed in a supine position, and the head was fixed at the center of the field of view of a microPET scanner Focus220. A transmission scan was performed for about 20 min using a ^68Ge-^68Ga point source. A 90-min list-mode data acquisition was started simultaneously with intravenous administration of [^11C]MTP38 via a saphenous vein cannula. All list-mode data were sorted into 3D sinograms, which were then Fourier-rebinned into 2D sinograms (frames: 10 s × 6, 30 s × 8, 1 min × 5, 2 min × 10, and 5 min × 12). The images were corrected for attenuation and reconstructed with a filtered back-projection algorithm using a Hanning filter with a cut-off at the Nyquist frequency (0.5 mm^−1).
Along with baseline scans, we carried out blocking PET experiments according to the following pretreatment protocols: (1) unlabeled MTP38 was administered as an intravenous bolus (0.075 mg/kg) at 1 h before radioligand injection followed by continuous infusion at a rate of 0.3 mg/kg/h until the end of the PET scan, and (2) MTP-X (0.3–30 mg/kg) was administered orally at 2 or 6 h before radioligand injection.
(§2) PET scans for monkeys at baseline and following pretreatment with unlabeled MTP38, and 3, 10, 30 mg/kg of MTP-X were performed along with arterial blood sampling to obtain a metabolite-corrected input function. In total, 22 arterial blood samples were collected manually with heparinized syringes via a saphenous artery contralateral to the radioligand injection. Sampling was performed at 10, 20, 30, 40, 50, 60, 75, 90, 105, 120, 150, 180, and 210 s and at 4, 5, 10, 20, 30, 45, 60, 75, and 90 min after radioligand injection. Blood samples were then placed on ice and divided into two aliquots, one of which was centrifuged with a refrigerated centrifuge (15,000×g, 3 min, 4 °C) to obtain plasma.
PET images were co-registered onto the individual MR images. ROIs were placed on the prefrontal and medial frontal cortices, hippocampus, amygdala, striatum (caudate + putamen), nucleus accumbens, thalamus, cerebellum (gray matter), and brainstem. TACs in the baseline and blockade experiments were generated for each ROI.
Regional TACs were examined by several analytical methods to calculate the regional total distribution volume (VT), which represents the sum of non-specific and specific radioligand binding. Compartment model (1- or 2-tissue) and Logan’s graphical analyses were employed for describing the radioligand kinetics in the brain. The fractional blood volume was fixed at 0.05. For compartment model analyses, an optimal model was chosen on the basis of Akaike’s information criterion (AIC) and model selection criterion (MSC). For graphical analyses, an equilibration time t* was determined so that by the maximum error from the regression within the linear segment was considered to be 10% for each TAC. Time stability of VT was investigated by truncating the data duration stepwise from 90 min to 30 min. The VT values with or without pretreatment with a blocker were then compared. We also validated the use of the cerebellum as a reference tissue by this comparison, in addition to the autoradiographic findings, in monkey brain slices. The non-displaceable binding potential (BPND) was calculated by the original multilinear reference tissue model (MRTMO). t* was determined in the same manner as Logan’s graphical analysis. […]

[3] = Radiometabolite analysis of arterial plasma; type: in vivo, rhesus monkeys; conditions: monkey; 90 min after injection
Method: as §2
Radioactivity in blood and plasma was measured with an auto-gamma counter (wizard 2480, PerkinElmer, Waltham, MA, USA). […] An aliquot of supernatant (< 1 mL) was injected into an HPLC system (JASCO, Tokyo, Japan) equipped with a radioactivity detector (column: CAPCELL PAK AQ, 5 μm, 10 × 250 mm; column temperature: room temperature; mobile phase: 45% CH3CN; flow rate: 6.0 mL/min). The fraction of the parent [^11C]MTP38 was calculated as a ratio of the peak area of MTP38 to the total area of peaks found on the radiochromatograms. Then, an arterial input function was determined by quantifying the metabolite-corrected arterial plasma radioactivity concentration.

PDE7 [4] = assay: In vitro autoradiography of monkey brain sections with [^11C]MTP38; type: binding, rhesus monkeys; conditions: 2 nM
Method: as §1

PDE7 [5] = assay: PET imaging in rats with [^11C]MTP38; type: in vivo, Wistar rats
Method: Each rat was scanned multiple times with a shortest interval of 1 month. Rats were anesthetized with isoflurane (3% for induction and 2% for maintenance) throughout the experiment. The tail vein was cannulated for radioligand injection. Body temperature was maintained at around 37 °C using a heating pad. The head of the rat was fixed at the center of the field of view of an animal PET scanner (microPET Focus220, Siemens Medical Solutions, Malvern, USA). A 90-min list-mode data acquisition was started simultaneously with intravenous administration of [^11C]MTP38. The list-mode data were sorted into 3D sinograms, which were then Fourier-rebinned into 2D sinograms (frames: 10 s × 6, 30 s × 8, 1 min × 5, 2 min × 10, and 5 min × 12). The sinograms were reconstructed with a filtered back-projection algorithm using a Hanning filter with a cut-off at the Nyquist frequency (0.5 mm^−1).
Along with baseline scans, we conducted blockade PET experiments according to the following pretreatment protocols: (1) unlabeled MTP38 (0.5 mg/kg) was administered intravenously at 2 min before radioligand injection, and (2) MTP-X (100 mg/kg) was administered orally at 1 h before radioligand injection.
PET images were co-registered manually onto the magnetic resonance (MR) template image. Details of co-registration were described elsewhere. Regions of interest (ROIs) were placed on the striatum as a target region and on the cerebellum (gray matter) as a reference region according to the expression of PDE7B mRNA in the rat brain [6], and time-activity curves (TACs) were generated for each ROI. Radioactivity in the brain was normalized with injected radioactivity and body weight, and expressed as standardized uptake value (SUV). Then the SUV ratio between the striatum and cerebellum was obtained to estimate the radioligand binding in the target region in baseline and blockade experiments.

PDE7 [6] = system: PDE7; set-up: method as in PMID 26330158; conditions: living rodent brains; cited from earlier work
[7] = monkey, baseline, Logan's graphical analysis, means of two animals

Cc1nc2ccc(F)cc2nc1-c1cc2nc(N3CC[C@@H](F)C3)cc(NCC(C)(C)O)n2n1 [MT-3014, reference compound]
effect of blocker on striatal radioactivity of [^11C]MTP38 (PDE7 [1]; [^11C]MTP38 2 nM, unlabeled MTP38 10 μM, MTP-X 4 μM, MT-3014 40 nM): did not change the radioligand binding

C[C@@H]1CC[C@H](C)N(c2nnc3c(N)ncc([11C]#N)n23)C1 [[^11C]MTP38]
Striatal BPND (PDE7 [2]; monkey #1, baseline): 0.409 | Striatal BPND (PDE7 [2]; monkey #2, baseline): 0.287 | Regional VT, AMY (amygdala) (PDE7 [2]; [7]): 2.50 mL/cm^3 | Regional VT, BS (brainstem) (PDE7 [2]; [7]): 3.13 mL/cm^3 | Regional VT, CB (cerebellum) (PDE7 [2]; [7]): 2.69 mL/cm^3 | Regional VT, HIP (hippocampus) (PDE7 [2]; [7]): 2.38 mL/cm^3 | Regional VT, MFC (medial frontal cortex) (PDE7 [2]; [7]): 3.27 mL/cm^3 | Regional VT, NAc (nucleus accumbens) (PDE7 [2]; [7]): 2.97 mL/cm^3 | Regional VT, PFC (prefrontal cortex) (PDE7 [2]; [7]): 2.93 mL/cm^3 | Regional VT, STR (striatum) (PDE7 [2]; [7]): 3.59 mL/cm^3 | Regional VT, THA (thalamus) (PDE7 [2]; [7]): 3.03 mL/cm^3 | k3 (2-tissue compartment model) (PDE7 [2]; monkey, some ROIs including the striatum, model failed to estimate VT): < 0.0001 min⁻¹ | maximal SUV in brain (PDE7 [2]; monkeys, iv): ~5 | time of brain radioactivity peak after injection (PDE7 [2]; monkeys, iv): 3 to 4 min | fraction of unmetabolized [^11C]MTP38 of total radioactivity in plasma [3]: 27.2% | radioligand reactivity in the striatum (PDE7 [4]): high radioligand reactivity in the striatum | radioligand reactivity in the striatum (PDE7 [1]; 2 nM): high radioligand reactivity in the striatum | striatum-to-cerebellum ratio of SUV (PDE7 [5]; baseline, plateau from 5 min): ~1.5 | SUV in the striatum and cerebellum at 90 min (PDE7 [5]; iv, 90 min): below 1.0 | peak SUV in the striatum and cerebellum (PDE7 [5]; iv, baseline): exceeding 4.0 | time of SUV peak after injection (PDE7 [5]; iv, striatum and cerebellum): ≤ 1 min

O=C1Nc2c(Cl)ccc(OCC[18F])c2C2(CCCCC2)N1 [[^18F]MICA-003]
in vivo metabolism (PDE7 [6]): rapid metabolic conversion to a brain-entering radiomolecule
